Measured values as given in publication PMC9377007, “An Unexpected Deuterium-Induced Metabolic Switch in Doxophylline” (ACS Medicinal Chemistry Letters, 2022).

Tested on: P. aeruginosa-induced lung injury
Assay: Pseudomonas aeruginosa-induced lung injury model
Format: in vivo
Conditions: P. aeruginosa-treated mice; for MPO activity in lungs / apoptosis in lung tissue, TUNEL assay / collagen deposition (Masson's trichrome) / histological examination by H&E staining / immunohistochemistry of PAR / immunohistochemistry of nitrotyrosine / total BAL cellularity: 80 mg/kg os daily for 7 days; for lung edema, ratio of wet to dry weight of lung tissue: 80 mg/kg os daily, day 7, versus vehicle
Procedure: Lung edema at day 7 was measured as a ratio of wet to dry weight of excised lung tissue (Figure 7c).
Figure 7 Model of pulmonary fibrosis induced by P. aeruginosa. (a) Representative scheme of P. aeruginosa-induced lung injury model. (b) Total BAL cellularity of sham and Pseudomonas-treated mice (treated or not with 80 mg/kg doxophylline, d4-doxophylline, or d7-doxophylline). Results are reported as mean ± SEM of 10 mice for all groups. (c) Wet/dry lung weight ratio of sham and Pseudomonas-treated mice (treated or not with 80 mg/kg doxophylline, d4-doxophylline, or d7-doxophylline). Results are reported as mean ± SEM of 10 mice for all groups. (d) MPO activity in lungs of sham and Pseudomonas-treated mice (treated or not with 80 mg/kg doxophylline, d4-doxophylline, or d7-doxophylline). Results are reported as mean ± SEM of 10 mice for all groups. (e) Representative images of H&E staining of sham and Pseudomonas-treated mice (treated or not with 80 mg/doxophylline, d4-doxophylline, or d7-doxophylline). (f) Representative images of Masson’s trichrome staining of sham and Pseudomonas-treated mice (treated or not with 80 mg/doxophylline, d4-doxophylline and d7-doxophylline). p values: *, p < 0.05; **, p < 0.01; ***, p < 0.001; ****, p < 0.0001. […]
experiments were performed following the new regulations of USA (Animal Welfare Assurance No A5594 - 01), Europe (EU Directive 2010/63) , Italy (D.Lgs 2014/26) and the ARRIVE guidelines.
Tryptic soya agar beads laden with PA were produced as described. The mucoid PA strain NH57388A, was utilized. NH57388A-laden agar beads were prepared the day before inoculation, stored overnight at 4 °C, suspended in sterile PBS to deliver approximately 1 Å~ 106 CFU in 50 μ l per mouse. The inoculation dose […]
Trans-tracheal instillation of beads.
Mice were anaesthetized with inhaled isoflurane delivered initially in an anaesthetic box until unconscious, transferred to a surgical board and maintained under anesthesia with isoflurane via nose cone. The ventral cervical region was sterilized and 1-cm midline skin incision made just cranial to the thoracic inlet. The trachea was visualized by blunt dissection. Traction on the lower jaw was used to extend and straighten the trachea and a 22G intravenous catheter (BD Biosciences) used to cannulate the trachea. A 1-ml syringe, pre-filled with beads suspended in PBS, was attached to the cannuale. The cannulae and syringe were left in-situ for 5-seconds following depression of the plunger, followed by slow withdrawal. The animal was elevated head up to 45- […]
intrapulmonary bead instillation. If evidence of respiratory distress (rapid or labored respiration/ gasping) occurred during the procedure anesthesia was rapidly reversed and oxygen alone administered via nose cone.
The incision was closed with surgical staples. Buprenorphine analgesia was administered subcutaneously post-operatively. Animals were weighed and scored clinically daily. Experiments were terminated at 2-weeks post-inoculation via anesthetic overdose.
Mice were randomly allocated into the following groups. PSEUDOMONAS group: mice were subjected to pseudomonas-induced lung injury (n = 10); PSEUDOMONAS group + doxophylline: Identical to the pseudomonas + vehicle group but were treated daily with doxophylline xo (80 mg/kg os) 1 h after pseudomonas instillation and continued daily for 7 days (n = 10); PSEUDOMONAS group + d4- doxophylline:
Identical to the pseudomonas + vehicle group but were treated daily with doxophylline deuterated d4 (80 mg/kg os) 1 h after pseudomonas instillation and continued daily for 7 days ( n = 10); PSEUDOMONAS group + d7- doxophylline: Identical to the pseudomonas + vehicle group but were treated daily with doxophylline deuterated d7 (80 mg/kg os) 1 h after pseudomonas instillation and continued daily for 7 days (n = 10); SHAM group: mice will receive the vehicle administration daily for 7 days ([…]); SHAM + doxophylline group: […]

Structure (SMILES)	MPO activity in lungs	apoptosis in lung tissue, TUNEL assay	collagen deposition (Masson's trichrome)	histological examination by H&E staining	immunohistochemistry of PAR	immunohistochemistry of nitrotyrosine	total BAL cellularity	lung edema, ratio of wet to dry weight of lung tissue
Cn1c(=O)c2c(ncn2CC2OCCO2)n(C)c1=O [doxophylline]	significantly reduced	reverted	effect	reduction of the inflammatory interstitial infiltrate	effect	effect	significantly reduced	considerably decreased
[2H]C1([2H])OC([2H])(C([2H])([2H])n2cnc3c2c(=O)n(C)c(=O)n3C)OC1([2H])[2H] [d7-doxophylline]	significantly reduced	reverted	effect	reduction of the inflammatory interstitial infiltrate	effect	effect	significantly reduced	considerably decreased
[2H]C1([2H])OC(Cn2cnc3c2c(=O)n(C)c(=O)n3C)OC1([2H])[2H] [d4-doxophylline]	lesser nonsignificant effect	did not have any effect	lesser or no effect	reduction of the inflammatory interstitial infiltrate	lesser or no effect	lesser or no effect	increased total BAL cellularity	–
